Like-named read-outs stand apart in the source and are kept apart here.
What was measured:
[1] = system: Green Peach Aphid (Myzus persicae); test: Insecticidal test on green peach aphid, spraying of Chinese cabbage, control value; assay type: in vivo; settings: single agent, 6 days after spraying
[2] = system: Citrus Yellow Thrips (Frankliniella occidentalis); test: Control of citrus yellow thrips on egg plant by combined use with natural enemy pesticide, number of thrips; assay type: in vivo; settings: 100 ppm, spray
Rice Blast = settings: in vivo
[3] = system: Brown Rice Planthopper (Nilaparvata lugens); test: Insecticidal test on brown rice planthopper, rice seedling dipping; assay type: in vivo; settings: single agent; for Death rate (%) After 1 days: after 1 day
From the text: Insecticidal Test on Brown Rice Planthopper (Nilaparvata lugens)
Rice seedlings (variety: Nihombare) were dipped in a solution of an agent diluted to a predetermined concentration for 30 seconds. After air-dryness, each seedling was introduced into a glass-made test tube having a diameter of 1.8 cm and a height of 20 cm, and inoculated with ten 3rd inster nimphs of brown rice planthopper. Then, the test tube was stoppered with cotton. One day after and four days after the treatment, the number of alive insects was counted, based on which the insect death rate was calculated.

[4] = system: Smaller Tea Tortrix (Adoxophyes orana fosciota); test: Insecticidal test on smaller tea tortrix, tea leaf dipping; assay type: in vivo; settings: 4th instar larvae, 25° C.; for pest or weed control at 1 ppm / pest or weed control at 50 ppm / pest or weed control at 0.1 ppm: Adoxophyes orana, foliar; for pest or weed control at 50 ppm: single agent 50 ppm
Protocol: Insecticidal Test on Smaller Tea Tortrix (Adoxophyes orana fosciota)
Tea leaves were dipped in a solution of a chemical diluted to a prescribed concentration for 30 seconds. […] Four days and seven days after the treatment, the number of alive insects were counted, from which percentage of death was calculated.

[5] = system: Rice Water Weevil (Lissorhoptrus oryzophilus); test: Control of rice water weevil on paddyfield rice by nursery box application, extent of injury; assay type: in vivo; settings: 0.5 g ai/Box, single agent
[6] = system: Resistant Strain of Two-Spotted Spider Mite; settings: 100 ppm, single agent, 2 days after spraying
[7] = system: Diamondback Moth (Plutella xyloxtella); test: Control of diamondback moth on cabbage by soil treatment, number of parasitic insects; assay type: in vivo; settings: 21 days after transplanting
Protocol: (§1) Test for the Control of Diamondback Moth (Plutella xyloxtella) and Aphid on Cabbage by Soil Treatment
(§2) A granular preparation was mixed into bed soil, and the mixture was filled into a cell seedling box and sown with seeds of cabbage (variety: YR Seitoku). Otherwise, cell seedling planted cabbage was treated with the granular agent either by a treatment in the foliage leaf extraction period, or by a pre-transplanting treatment, or by a pricking-in hole treatment, or by a plant foot treatment after the planting. Twenty one days after the transplanting (in the middle of June), the number of parasitic insects was counted on 30 hills in the case of diamondback moth and on 10 hills in the case of aphid.

Cutworm = test: Test for the effect against cutworm on beet, drench, number of injured hills per 100 hills; assay type: in vivo
Protocol: Test for the Effect Against Cutworm on Beet
Beet seedlings (variety: Monoace S) planted in a paper pot was treated with 3 L/m^2 of a solution of an agent diluted to a predetermined concentration, by the method of drench. Just after the drench, the plant was set. Predetermined days after the setting, the number of injured hills per 100 hills was counted.

[8] = system: Small Brown Planthopper (Laodelphax striatellus); test: Control of small brown planthopper on paddyfield rice by nursery box application, number of parasitic insects; assay type: in vivo; settings: single agent
Protocol: (§3) Test for the Control of Small Brown Planthopper (Laodelphax striatellus) and Rice Leafroller (Cnaphalocrosis medinalis) on Paddyfield Rice Plant by Nursery Box Application
(§4) Fifty grams of a granular preparation was applied to rice plant (variety: Nihombare) cultured in a nursery box, after which the rice plant was transplanted to the main paddy field (in the middle of May). The controlling effect against small brown planthopper was evaluated by investigating the number of parasitic insects on 30 hills per each plot, 40 days and 60 days after the transplantation. The controlling effect against rice leafroller was evaluated by investigating the number of injured leaves on 100 hills per each plot, 50 days after the transplantation.

Aphid = test: Control of aphid on cabbage by soil treatment, number of parasitic insects; assay type: in vivo; settings: 21 days after transplanting
Protocol: as §1
as §2, with “Twenty one days after the transplanting (in the middle of June), the number of parasitic insects was counted on 30 hills in the case of diamondback moth and on 10 hills in the case of aphid.” left out

[9] = system: Southern Root-Knot Nematode (Meloidogyne incognita); test: Test for the effect on southern root-knot nematode, soil blending with granular preparation; assay type: in vivo; settings: 300 g ai/10a, single agent, 60 days after treatment
From the text: Test for the Effect on Southern Root-Knot Nematode (Meloidogyne incognita)
Two killograms of a soil polluted with southern root-knot nematode was blended with a predetermined dose of a granular preparation. The mixture was filled into a 1/5,000 are Wagner pot. After sowing melon seeds and carrying out the treatment of the present invention, the pot was left to stand in a greenhouse. Sixty days after the treatment, 25 g of the soil was sampled out, the nematode was separated therefrom according to the method of Berman, and the numbers of nematodes were counted after 48 hours.
In the tables, “ai” means active ingredient.

[10] = system: Rice Leafroller (Cnaphalocrosis medinalis); test: Control of rice leafroller on paddyfield rice by nursery box application, number of injured leaves; assay type: in vivo; settings: single agent
Protocol: as §3, §4

[11] = Myzus persicae, 144 h, read-out: Control degree (%)
[12] = 5 mg ai/hill, plant foot treatment
[13] = 5 mg ai/hill, pre-transplanting treatment
[14] = 5 mg ai/hill, pricking-in hole treatment
[15] = 5 mg ai/hill, soil incorporation
[16] = 5 mg ai/hill, true leaf extraction season treatment
[17] = 96 h, single agent 1 ppm, read-out: Death rate (%) After 4 days
[18] = 168 h, single agent 1 ppm, read-out: Death rate (%) After 7 days
[19] = 20 mg ai/hill, picking-in hole treatment
[20] = 20 mg ai/hill, plant foot treatment
[21] = 20 mg ai/hill, pre-transplanting treatment

Compound: Cc1c(COC(=O)[C@@H]2[C@H](/C=C(\Cl)C(F)(F)F)C2(C)C)cccc1-c1ccccc1 (racemic) [bifenthrin]
- pest or weed control at 0.1 ppm [1, 11]: 80%

Compound: Cc1cc(C(F)(F)C(F)(F)F)ccc1NC(=O)c1cccc(Cl)c1C(=O)NC(C)C [Compound 19]
- Number of parasitic insects per 20 leaves, After 60 days [2]: 20
- Number of parasitic insects per 20 leaves, After 90 days [2]: 27
- Number of parasitic insects per 20 leaves, After 120 days [2]: 55
- Areal rate of disease spot (%) After 60 days (Rice Blast): 8.3%
- Death rate (%) After 1 days ([3]; 100 ppm): 0%
- Death rate (%) After 5 days ([3]; 100 ppm): 0%
- Control degree (%) ([1]; 100 ppm): 0%
- Death rate (%) After 4 days ([4]; single agent 0.3 ppm): 0%
- Death rate (%) After 7 days ([4]; single agent 0.3 ppm): 30%
- Extent of injury After 21 days [5]: 38.9
- Death rate (%) [6]: 0%
- Number of parasitic insects per 30 hills, Diamondback moth [7, 12]: 2
- Number of parasitic insects per 30 hills, Diamondback moth [7, 13]: 1
- Number of parasitic insects per 30 hills, Diamondback moth [7, 14]: 1
- Number of parasitic insects per 30 hills, Diamondback moth [7, 15]: 1
- Number of parasitic insects per 30 hills, Diamondback moth [7, 16]: 2
- Number of injured hills per 100 hills, After 60 days (Cutworm; 15 g ai/10a): 0
- Number of injured hills per 100 hills, After 90 days (Cutworm; 15 g ai/10a): 8
- Number of injured hills per 100 hills, After 120 days (Cutworm; 15 g ai/10a): 21
- Number of parasitic planthoppers per 30 hills After 40 days ([8]; 0.5 g ai/Box): 325
- Number of parasitic planthoppers per 30 hills After 60 days ([8]; 0.5 g ai/Box): 389
- Number of parasitic insects per 30 hills, Aphid (Aphid; [12]): 489
- Number of parasitic insects per 30 hills, Aphid (Aphid; [13]): 399
- Number of parasitic insects per 30 hills, Aphid (Aphid; [14]): 467
- Number of parasitic insects per 30 hills, Aphid (Aphid; [15]): 445
- Number of parasitic insects per 30 hills, Aphid (Aphid; [16]): 457
- Number of nematodes per 25 g of soil sample [9]: 36
- Percentage of injured leaves (%) After 50 days ([10]; 0.5 g ai/Box): 0.16%

Compound: COP(=O)(NC(C)=O)SC (stereo not shown) [acephate]
- pest or weed control at 10 ppm [1, 11]: 48%
- Number of injured hills per 100 hills, After 60 days (Cutworm; 50 g ai/10a): 2
- Number of injured hills per 100 hills, After 90 days (Cutworm; 50 g ai/10a): 14
- Number of injured hills per 100 hills, After 120 days (Cutworm; 50 g ai/10a): 24

Compound: CCOC(=O)CCN(SN(C)C(=O)Oc1cccc2c1OC(C)(C)C2)C(C)C [benfuracarb]
- Number of parasitic planthoppers per 30 hills After 40 days ([8]; 2.5 g ai/Box): 78
- Number of parasitic planthoppers per 30 hills After 60 days ([8]; 2.5 g ai/Box): 244
- Percentage of injured leaves (%) After 50 days ([10]; 2.5 g ai/Box): 1.13%

Compound: CC(C)N1C(=O)N(c2ccccc2)CS/C1=N\C(C)(C)C [buprofezin]
- Death rate (%) After 1 days ([3]; 0.3 ppm): 0%
- Death rate (%) After 5 days ([3]; 0.3 ppm): 45%

Compound: CCOCn1c(-c2ccc(Cl)cc2)c(C#N)c(Br)c1C(F)(F)F [chlorfenapyr, reference compound]
- pest or weed control at 1 ppm [4, 17]: 0%
- pest or weed control at 1 ppm [4, 18]: 0%

Compound: O=C(NC(=O)c1c(F)cccc1F)Nc1cc(Cl)c(Oc2ncc(C(F)(F)F)cc2Cl)c(Cl)c1 [chlorfluazuron, reference compound]
- pest or weed control at 1 ppm [4, 17]: 10%
- pest or weed control at 1 ppm [4, 18]: 30%

Compound: CCOP(=S)(OCC)Oc1nc(Cl)c(Cl)cc1Cl [chlorpyriphos, reference compound]
- pest or weed control at 1 ppm [4, 17]: 10%
- pest or weed control at 1 ppm [4, 18]: 10%

Compound: CC(C)([CH2][Sn]([CH2]C(C)(C)c1ccccc1)([CH2]C(C)(C)c1ccccc1)[O][Sn]([CH2]C(C)(C)c1ccccc1)([CH2]C(C)(C)c1ccccc1)[CH2]C(C)(C)c1ccccc1)c1ccccc1 [fenbutatin oxide]
- Death rate (%) [6]: 50%

Compound: Cc1nn(C)c(Oc2ccccc2)c1C=NOCc1ccc(C(=O)OC(C)(C)C)cc1 [fenpyroximate, reference compound]
- pest or weed control at 50 ppm ([4]; 96 h, read-out: Death rate (%) After 4 days): 0%
- pest or weed control at 50 ppm ([4]; 168 h, read-out: Death rate (%) After 7 days): 0%

Compound: O=C(NC(=O)c1c(F)cccc1F)Nc1ccc(Oc2ccc(C(F)(F)F)cc2Cl)cc1F [flufenoxuron]
- pest or weed control at 50 ppm ([1]; Myzus persicae, 144 h, 50 ppm, read-out: Control degree (%)): 11%

Compound: CCOP(=O)(SC(C)CC)N1CCSC1=O (stereo not shown) [fosthiazate]
- Number of nematodes per 25 g of soil sample [9]: 7

Compound: CC(C)(COCc1cccc(Oc2ccccc2)c1)c1ccc(OC(F)(F)Br)cc1 [halfenprox]
- Death rate (%) [6]: 35%

Compound: O=[N+]([O-])NC1=NCCN1Cc1ccc(Cl)nc1 [imidacloprid]
- Death rate (%) After 1 days ([3]; 0.1 ppm): 35%
- Death rate (%) After 5 days ([3]; 0.1 ppm): 35%
- pest or weed control at 0.1 ppm [1, 11]: 69%
- Number of parasitic insects per 30 hills, Diamondback moth [7, 19]: 40
- Number of parasitic insects per 30 hills, Diamondback moth [7, 20]: 38
- Number of parasitic insects per 30 hills, Diamondback moth [7, 21]: 35
- Number of parasitic planthoppers per 30 hills After 40 days ([8]; 1 g ai/Box): 0
- Number of parasitic planthoppers per 30 hills After 60 days ([8]; 1 g ai/Box): 29
- Number of parasitic insects per 30 hills, Aphid (Aphid; [19]): 16
- Number of parasitic insects per 30 hills, Aphid (Aphid; [20]): 13
- Number of parasitic insects per 30 hills, Aphid (Aphid; [21]): 10
- Percentage of injured leaves (%) After 50 days ([10]; 1 g ai/Box): 1.63%

Compound: COC(=O)N(C(=O)N1CO[C@@]2(C(=O)OC)Cc3cc(Cl)ccc3C2=N1)c1ccc(OC(F)(F)F)cc1 [indoxacarb, reference compound]
- Death rate (%) After 4 days ([4]; single agent 1 ppm): 10%
- Death rate (%) After 7 days ([4]; single agent 1 ppm): 40%

Compound: COc1cccc(C(=O)NN(C(=O)c2cc(C)cc(C)c2)C(C)(C)C)c1C [methoxyfenozide, reference compound]
- pest or weed control at 0.1 ppm ([4]; 96 h, single agent 0.1 ppm, read-out: Death rate (%) After 4 days): 0%
- pest or weed control at 0.1 ppm ([4]; 168 h, single agent 0.1 ppm, read-out: Death rate (%) After 7 days): 50%

Compound: CNC(=O)O/N=C(\SC)C(=O)N(C)C [oxamyl]
- Number of nematodes per 25 g of soil sample [9]: 13

Compound: CC1=NNC(=O)N(/N=C/c2cccnc2)C1 [pymetrozin]
- Death rate (%) After 1 days ([3]; 100 ppm): 10%
- Death rate (%) After 5 days ([3]; 100 ppm): 40%

Compound: CC(C)(C)c1ccc(CSc2cnn(C(C)(C)C)c(=O)c2Cl)cc1 [pyridaben]
- pest or weed control at 10 ppm [1, 11]: 43%

Compound: CCOc1ccc([Si](C)(C)CCCc2ccc(F)c(Oc3ccccc3)c2)cc1 [silafluofen]
- Death rate (%) After 1 days ([3]; 1 ppm): 30%
- Death rate (%) After 5 days ([3]; 1 ppm): 30%

Compound: CCc1nn(C)c(C(=O)NCc2ccc(C(C)(C)C)cc2)c1Cl [tebufenpyrad]
- Death rate (%) [6]: 60%

Compound: emamectin-benzoate [reference compound]
- Death rate (%) After 4 days ([4]; single agent 0.1 ppm): 10%
- Death rate (%) After 7 days ([4]; single agent 0.1 ppm): 45%

Compound: milbemectin
- Control degree (%) ([1]; 1 ppm): 82%

Source: patent US20150250167A1, “COMPOSITION FOR NOXIOUS ORGANISMS-CONTROLLING AGENT AND METHOD FOR USING THE SAME” (priority 2001, published 2015)
